pIC50: −log10 of the molar value.

In one assay the target is T1, Kv1.3 potassium channel (Homo sapiens, UniProt P22001).
T1 construct: expressed in transfected cells
Put plainly: Kv1.3 potassium channel blocker activity, automated whole-cell patch clamp (Patchliner). In kind it is cell-based. The following applies: CHO-K1 cells stably expressing Kv1.3; whole-cell current, Hill fit. As to the method: Example 9. Evaluation of Kv1.3 Potassium Channel Blocker Activities
This assay is used to evaluate the disclosed compounds' activities as Kv1.3 potassium channel blockers.
CHO-K1 cells stably expressing Kv1.3 were grown in DMEM containing 10% heat-inactivated FBS, 1 mM Sodium Pyruvate, 2 mM L-Glutamine and G418 (500 μg/ml). Cells were grown in culture flasks at 37° C. in a […] incubator.
The cells were bathed in an extracellular solution containing 140 mM NaCl, 4 mM KCl, 2 mM CaCl2, 1 mM MgCl2, 5 mM Glucose, 10 mM HEPES; pH adjusted to 7.4 with NaOH; 295-305 mOsm. The internal solution contained 50 mM KCl, 10 mM NaCl, 60 mM KF, 20 mM EGTA, 10 mM HEPES; pH adjusted to 7.2 with KOH; 285 mOsm. All compounds were dissolved in DMSO at 30 mM. Compound stock solutions were freshly diluted with external solution to concentrations of 30 nM, 100 nM, 300 nM, 1 μM, 3 μM, 10 μM, 30 μM and 100 μM. The highest content of DMSO (0.3%) was present in 100 μM.
The currents were evoked by applying 100 ms depolarizing pulses from −90 mV (holding potential) to +40 mV were applied with 0.1 Hz frequency. Control (compound-free) and compound pulse trains for each compound concentration applied contained 20 pulses. 10-second breaks were used between pulse trains (see Table A below).
Whole-cell current recordings and compound application were enabled by means of an automated patch clamp platform Patchliner (Nanion Technologies GmbH). EPC 10 patch clamp amplifier (HEKA Elektronik Dr. Schulze GmbH) along with Patchmaster software (HEKA Elektronik Dr. Schulze GmbH) was used for data acquisition. Data were sampled at 10 kHz without filtering. Passive leak currents were subtracted online using a P/4 procedure (HEKA Elektronik Dr. Schulze GmbH). Increasing compound concentrations were applied consecutively to the same cell without washouts in between. Total compound incubation time before the next pulse train was not longer than 10 seconds. Peak current inhibition was observed during compound equilibration.
(§1) AUC and peak values were obtained with Patchmaster (HEKA Elektronik Dr. Schulze GmbH). To determine IC50, the last single pulse in the pulse train corresponding to a given compound concentration was used. Obtained AUC and peak values in the presence of compound were normalized to control values in the absence of compound. Using Origin (OridinLab), IC50 was derived from data fit to Hill equation: Icompound/Icontrol=(100−A)/(1+([compound]/IC50)nH)+A, where IC50 value is the concentration at which current inhibition is half-maximal, [compound] is the applied compound concentration, A is the fraction of current that is not blocked and nH is the Hill coefficient.
For orientation: In patch-clamp work, channel activity is measured electrically.

The next assay addresses T2, hERG channel (Homo sapiens, UniProt Q12809).
T2 construct: expressed in transfected cells
Put plainly: hERG electrophysiology, automated whole-cell patch clamp (Patchliner). The format is cell-based. The following applies: CHO-K1 cells stably expressing hERG; whole-cell current, Hill fit. How it is done:
Example 10. Evaluation of hERG Activities
This assay is used to evaluate the disclosed compounds' inhibition activities against the hERG channel.
CHO-K1 cells stably expressing hERG were grown in Ham's F-12 Medium with Glutamine containing 10% heat-inactivated FBS, 1% Penicillin/Streptomycin, Hygromycin (100 μg/ml) and G418 (100 μg/ml). Cells were grown in culture flasks at 37° C. in a 5% CO2-humidified incubator.
The cells were bathed in an extracellular solution containing 140 mM NaCl, 4 mM KCl, 2 mM CaCl2), 1 mM MgCl2, 5 mM Glucose, 10 mM HEPES; pH adjusted to 7.4 with NaOH; 295-305 mOsm. The internal solution contained 50 mM KCl, 10 mM NaCl, 60 mM KF, 20 mM EGTA, 10 mM HEPES; pH adjusted to 7.2 with KOH; 285 mOsm. All compounds were dissolved in DMSO at 30 mM. Compound stock solutions were freshly diluted with external solution to concentrations of 30 nM, 100 nM, 300 nM, 1 μM, 3 μM, 10 μM, 30 μM and 100 μM. The highest content of DMSO (0.3%) was present in 100 μM.
The voltage protocol (see Table B) was designed to simulate voltage changes during a cardiac action potential with a 300 ms depolarization to +20 mV (analogous to the plateau phase of the cardiac action potential), a repolarization for 300 ms to −50 mV (inducing a tail current) and a final step to the holding potential of −80 mV. The pulse frequency was 0.3 Hz. Control (compound-free) and compound pulse trains for each compound concentration applied contained 70 pulses.
Whole-cell current recordings and compound application were enabled by means of an automated patch clamp platform Patchliner (Nanion). EPC 10 patch clamp amplifier (HEKA) along with Patchmaster software (HEKA Elektronik Dr. Schulze GmbH) was used for data acquisition. Data were sampled at 10 kHz without filtering. Increasing compound concentrations were applied consecutively to the same cell without washouts in between.
as §1, with “PEAK” for “peak”, “IC50” for “IC50,”, “IC50” for “IC50 value”
On the technique in general: Block of hERG is tested as a sign of cardiac risk.

T1 sequence (P22001 whole entry): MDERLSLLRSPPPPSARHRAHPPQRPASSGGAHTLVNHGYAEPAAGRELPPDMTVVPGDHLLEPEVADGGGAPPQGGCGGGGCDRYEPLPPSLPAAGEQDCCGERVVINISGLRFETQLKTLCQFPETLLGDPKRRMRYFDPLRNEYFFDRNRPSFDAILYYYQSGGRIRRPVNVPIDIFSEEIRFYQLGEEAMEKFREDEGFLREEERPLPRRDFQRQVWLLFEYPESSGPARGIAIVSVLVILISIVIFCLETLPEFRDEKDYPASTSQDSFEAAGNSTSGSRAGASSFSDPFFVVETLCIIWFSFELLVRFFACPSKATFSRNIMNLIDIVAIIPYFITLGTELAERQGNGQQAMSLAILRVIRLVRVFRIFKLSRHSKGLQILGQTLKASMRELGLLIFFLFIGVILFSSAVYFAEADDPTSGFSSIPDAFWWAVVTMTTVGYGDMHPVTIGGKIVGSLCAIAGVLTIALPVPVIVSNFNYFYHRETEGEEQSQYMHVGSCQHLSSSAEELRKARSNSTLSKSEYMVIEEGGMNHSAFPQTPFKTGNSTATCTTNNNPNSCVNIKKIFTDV
T2 sequence (Q12809 whole entry): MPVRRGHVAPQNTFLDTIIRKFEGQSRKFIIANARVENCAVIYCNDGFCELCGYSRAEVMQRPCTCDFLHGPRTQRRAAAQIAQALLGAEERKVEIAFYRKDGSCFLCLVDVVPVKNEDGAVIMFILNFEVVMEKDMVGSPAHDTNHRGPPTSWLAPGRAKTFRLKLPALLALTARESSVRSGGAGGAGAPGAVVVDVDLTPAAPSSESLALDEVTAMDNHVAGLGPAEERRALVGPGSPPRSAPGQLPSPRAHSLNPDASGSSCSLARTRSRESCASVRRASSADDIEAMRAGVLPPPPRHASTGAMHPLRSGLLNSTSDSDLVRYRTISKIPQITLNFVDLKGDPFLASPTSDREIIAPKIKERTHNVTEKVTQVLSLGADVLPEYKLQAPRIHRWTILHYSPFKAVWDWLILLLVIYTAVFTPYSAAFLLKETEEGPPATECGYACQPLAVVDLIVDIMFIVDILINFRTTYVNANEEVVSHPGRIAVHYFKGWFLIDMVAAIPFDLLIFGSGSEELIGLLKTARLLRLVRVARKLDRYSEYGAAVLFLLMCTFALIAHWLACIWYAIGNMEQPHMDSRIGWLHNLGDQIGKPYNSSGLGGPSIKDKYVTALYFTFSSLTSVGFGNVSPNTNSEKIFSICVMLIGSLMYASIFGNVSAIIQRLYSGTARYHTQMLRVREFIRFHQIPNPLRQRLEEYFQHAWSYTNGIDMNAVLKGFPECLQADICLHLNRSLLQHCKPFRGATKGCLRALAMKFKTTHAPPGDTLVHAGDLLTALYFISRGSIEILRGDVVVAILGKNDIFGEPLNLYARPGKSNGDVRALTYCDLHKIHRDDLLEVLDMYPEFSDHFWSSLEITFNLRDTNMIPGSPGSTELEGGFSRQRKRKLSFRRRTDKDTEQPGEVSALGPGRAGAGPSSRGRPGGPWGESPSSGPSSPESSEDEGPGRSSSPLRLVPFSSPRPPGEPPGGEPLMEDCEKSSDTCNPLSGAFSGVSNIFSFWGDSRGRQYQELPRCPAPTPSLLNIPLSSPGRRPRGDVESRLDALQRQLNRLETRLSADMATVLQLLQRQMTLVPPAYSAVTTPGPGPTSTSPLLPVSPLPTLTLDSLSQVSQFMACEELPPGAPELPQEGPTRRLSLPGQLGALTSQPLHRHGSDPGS

Broadly, the pIC50 is the negative decadic logarithm of the IC50, by convention in mol/L. A lower pIC50 goes with a large IC50. For `O=C1[C@@H]2C[C@H](c3c(O)ccc(Cl)c3Cl)CCN2C(=O)CN1C1CC(O)C1` (relative stereo) [Compound 20, (8R,9aS)-rel-8-(2,3-dichloro-6-hydroxyphenyl)-2-(3-hydroxycyclobutyl)-hexahydropyrido[1,2-a]pyrazine-1,4-dione], the negative logarithm of the IC50 (pIC50) is > 6.00 against Kv1.3 potassium channel and < 4.52 at hERG channel.
As to `Cc1cc(O)c([C@@H]2CCN3C(=O)[C@@H](CO)NC(=O)[C@@H]3C2)c(Cl)c1Cl` (relative stereo) [Compound 22, (8R,9aS)-rel-8-(2,3-dichloro-6-hydroxy-4-methylphenyl)-3-((3R)-hydroxymethyl)-hexahydro-2H-pyrido[1,2-a]pyrazine-1,4-dione], the results for the pIC50 at Kv1.3 potassium channel and against hERG channel were > 6.00 and < 4.52, respectively.
Turning to `COC[C@H]1NC(=O)[C@@H]2C[C@H](c3c(O)ccc(Cl)c3Cl)CCN2C1=O` (relative stereo) [Compound 55, (8R,9aS)-rel-8-(2,3-dichloro-6-hydroxyphenyl)-3-((3R)-methoxymethyl)-hexahydro-2H-pyrido[1,2-a]pyrazine-1,4-dione], the negative-log IC50 (pIC50) at Kv1.3 potassium channel was > 6.00; against hERG channel it was < 4.52.
The matching figures for `O=C1NC(=O)N2CC[C@H](c3c(O)ccc(Cl)c3Cl)C[C@@H]12` (single isomer, unassigned; diastereoisomer 1) [Compound 9, 7-(2,3-dichloro-6-hydroxyphenyl)tetrahydro-imidazo[1,5-a]pyridine-1,3(2H,5H)-dione diastereoisomer 1]: > 6.00 and < 4.52.
The matching figures for `O=C1[C@@H]2C[C@H](c3c(O)ccc(Cl)c3Cl)CCN2C(=O)CN1C1CC(O)C1` (single isomer, unassigned; isomer 1) [Compound 14, 8-(2,3-dichloro-6-hydroxyphenyl)-2-[3-hydroxycyclobutyl]-hexahydropyrido[1,2-a]pyrazine-1,4-dione isomer 1]: > 6.00 and < 4.52.
Turning to `O=C1[C@@H]2C[C@H](c3c(O)ccc(Cl)c3Cl)CCN2C(=O)CN1C1CC(O)C1` (single isomer, unassigned; isomer 2) [Compound 44, 8-(2,3-dichloro-6-hydroxyphenyl)-2-[3-hydroxycyclobutyl]-hexahydropyrido[1,2-a]pyrazine-1,4-dione isomer 2], the pIC50 at Kv1.3 potassium channel is > 6.00; at hERG channel it was < 4.52.
Taken in the same sequence, the figures for `O=C1[C@@H]2C[C@H](c3c(O)ccc(Cl)c3Cl)CCN2C(=O)[C@H]2C[C@H](O)CN12` (single isomer, unassigned; isomer 2) [Compound 65, 7-(2,3-dichloro-6-hydroxyphenyl)-2-hydroxyhexahydro-1H-pyrido[1,2-a]pyrrolo[1,2-d]pyrazine-5,11(5aH,11aH)-dione isomer 2] were > 6.00 and > 4.52.
On to `O=C1[C@@H]2C[C@H](O)CN2C(=O)[C@@H]2C[C@H](c3c(O)ccc(Cl)c3Cl)CCN12` (single isomer, unassigned; isomer 4) [Compound 35, 7-(2,3-dichloro-6-hydroxyphenyl)-2-hydroxyhexahydro-1H-pyrido[1,2-a]pyrrolo[1,2-d]pyrazine-5,11(5aH,11aH)-dione isomer 4], for which the pIC50 is > 6.00 against Kv1.3 potassium channel and > 4.52 at hERG channel.
Regarding `O=C1[C@@H]2C[C@H](c3c(O)ccc(Cl)c3Cl)CCN2C(=O)CN1C1CNC1` [Compound 1, (8R,9aS)-2-(azetidin-3-yl)-8-(2,3-dichloro-6-hydroxyphenyl)-octahydro-1H-pyrido[1,2-a]pyrazine-1,4-dione], the values for the pIC50 at Kv1.3 potassium channel and on hERG channel were > 6.00 and < 4.52, respectively.
Taken in the same sequence, the figures for `O=C1N[C@H](CO)C(=O)N2CC[C@@H](c3c(O)ccc(Cl)c3Cl)C[C@@H]12` [Compound 2, (3R,8R,9aS)-8-(2,3-dichloro-6-hydroxyphenyl)-3-(hydroxymethyl)-hexahydro-2H-pyrido[1,2-a]pyrazine-1,4-dione] were > 6.00 and < 4.52.
Taken in the same sequence, the figures for `C[C@H](O)[C@H]1NC(=O)[C@@H]2C[C@H](c3c(O)ccc(Cl)c3Cl)CCN2C1=O` [Compound 3, (3R,8R,9aS)-8-(2,3-dichloro-6-hydroxyphenyl)-3-[(1S)-1-hydroxyethyl]-hexahydro-2H-pyrido[1,2-a]pyrazine-1,4-dione] were > 6.00 and < 4.52.
The matching figures for `CN1C(=O)[C@@H]2C[C@H](c3c(O)ccc(Cl)c3Cl)CCN2C(=O)[C@H]1CO` [Compound 6, (3R,8R,9aS)-8-(2,3-dichloro-6-hydroxyphenyl)-3-(hydroxymethyl)-2-methyl-hexahydropyrido[1,2-a]pyrazine-1,4-dione]: > 6.00 and < 4.52.
As for `O=C1NCCC(=O)N2CCC(c3c(O)ccc(Cl)c3Cl)CC12` (stereo not shown) [Compound 8, 9-(2,3-dichloro-6-hydroxyphenyl)-decahydropyrido[1,2-a][1,4]diazepine-1,5-dione], the negative logarithm of the IC50 (pIC50) against Kv1.3 potassium channel is > 6.00; against hERG channel, < 4.52.
`O=C1[C@H]2[C@@H](O)CCN2C(=O)[C@@H]2C[C@H](c3c(O)ccc(Cl)c3Cl)CCN12` [Compound 12, (1S,5aS,7R,11aR)-7-(2,3-dichloro-6-hydroxyphenyl)-1-hydroxyhexahydro-1H-pyrido[1,2-a]pyrrolo[1,2-d]pyrazine-5,11(5aH,11aH)-dione]: the negative-log IC50 (pIC50) against Kv1.3 potassium channel was > 6.00; on hERG channel, < 4.52.
In the case of `C[C@@H](O)[C@H]1NC(=O)[C@@H]2C[C@H](c3c(O)ccc(Cl)c3Cl)CCN2C1=O` [Compound 24, (3R,8R,9aS)-8-(2,3-dichloro-6-hydroxyphenyl)-3-[(1R)-1-hydroxyethyl]-hexahydro-2H-pyrido[1,2-a]pyrazine-1,4-dione], the negative-log IC50 (pIC50) was > 6.00 on Kv1.3 potassium channel and < 4.52 against hERG channel.
In the case of `O=C1[C@@H]2C[C@H](c3c(O)ccc(Cl)c3Cl)CCN2C(=O)CN1CCO` [Compound 26, (8R,9aS)-8-(2,3-dichloro-6-hydroxyphenyl)-2-(2-hydroxyethyl)-hexahydropyrido[1,2-a]pyrazine-1,4-dione], the pIC50 is > 6.00 on Kv1.3 potassium channel and < 4.52 at hERG channel.
As for `CC(C)[C@H](O)[C@H]1NC(=O)[C@@H]2C[C@H](c3c(O)ccc(Cl)c3Cl)CCN2C1=O` [Compound 30, (3R,8R.9aS)-8-(2,3-dichloro-6-hydroxyphenyl)-3-[(1S)-1-hydroxy-2-methylpropyl]-hexahydro-2H-pyrido[1,2-a]pyrazine-1,4-dione], the pIC50 on Kv1.3 potassium channel was > 6.00; at hERG channel it was < 4.52.

The values are drawn from patent publication US20230040182A1, “ARYL HETEROBICYCLIC COMPOUNDS AS Kv1.3 POTASSIUM SHAKER CHANNEL BLOCKERS” (priority 2019, published 2023).
